Test results reported in ChEMBL document CHEMBL4130409, “Gordonic Acid, a Polyketide Glycoside Derived from Bacterial Coculture of Streptomyces and Gordonia Species” (J Nat Prod, 2017).

Key:
[1] = test system: Micrococcus luteus; test: Antibacterial activity against Micrococcus luteus KCCM 11548 assessed as zone of inhibition at 10 microg/disk after 18 to 36 hrs by agar diffusion method; assay type: functional; details: read-out: DIZ
[2] = test system: Enterococcus hirae; test: Antibacterial activity against Enterococcus hirae KCCM 11768 assessed as zone of inhibition at 10 microg/disk after 18 to 36 hrs by agar diffusion method; assay type: functional; details: read-out: DIZ
[3] = test system: Gordonia sp.; test: Growth inhibition of Gordonia sp. KMC005 after 18 to 36 hrs by agar diffusion method
[4] = test system: Streptomyces tendae; test: Growth inhibition of Streptomyces tendae KMC006 after 18 to 36 hrs by agar diffusion method; assay type: organism-based; details: in vivo

SMILES	zone of inhibition at 10 µg/disc [1] [mm]	zone of inhibition at 10 µg/disc [2] [mm]	Activity [3]	Activity [4]
CC1(C)S[C@@H]2[C@H](NC(=O)[C@H](N)c3ccccc3)C(=O)N2[C@H]1C(=O)O [AMPICILLIN]	10	8	–	–
CC(/C=C/C=C/C=C/C=C/C(O)=C1\C(=O)[C@H](CCC(=O)O)N(C)C1=O)=C\[C@@H](C)[C@@H](O[C@H]1C[C@H](O)[C@H](O)[C@@H](C)O1)C(C)C	–	–	Non-Toxic	Non-Toxic
CC(/C=C/C=C/C=C/C=C/C(=O)O)=C\[C@@H](C)[C@@H](O[C@H]1C[C@H](O)[C@H](O)[C@@H](C)O1)C(C)C	2.5	1.5	Non-Toxic	Non-Toxic
